Data taken from US20160075653A1, “NEMATICIDAL N-(PHENYLCYCLOALKYL)CARBOXAMIDES AND N-(PHENYLCYCLOALKYL)THIOCARBOXAMIDES” (BAYER CROPSCIENCE AKTIENGESELLSCHAFT, priority 2013, published 2016).

Test: Measurement of log P values by HPLC on reversed phase columns (methods [a] pH 2.3, [b] pH 2.7, [c] pH 7.8)
Assay type: physicochemical
Conditions: HPLC on reversed phase column, method [b], pH 2.7
Experimental: Measurement of log P-Values:
Measurement of log P Values was Performed According EEC Directive 79/831 Annex V.A8 by HPLC (High Performance Liquid
Chromatography) on reversed phase columns with the following methods: ^[a] Measurement was done at pH 2.3 with 0.1% phosphoric acid and acetonitrile as eluent with a linear gradient from 10% acetonitrile to 95% acetonitrile. ^[b] measurement of LC-MS was done at pH 2.7 with 0.1% formic acid in water and with acetonitrile (contains 0.1% formic acid) as eluent with a linear gradient from 10% acetonitrile to 95% acetonitrile. ^[c] Measurement with LC-MS was done at pH 7.8 with 0.001 molar ammonium hydrogen carbonate solution in water as eluent with a linear gradient from 10% acetonitrile to 95% acetonitrile.
Calibration was done with linear alkan-2-ones (with 3 to 16 carbon atoms) with known log P-values (measurement of log P values using retention times with linear interpolation between successive alkanones). Lambda-max-values were determined using UV-spectra from 200 nm to 400 nm and the peak values of the chromatographic signals.

logP | Compound
3.13^[b] | O=C(N[C@@H]1CC[C@H]1c1ccccc1C(F)(F)F)c1ccccc1[N+](=O)[O-] (relative stereo) [Example 637]
2.84^[b] | O=C(N[C@@H]1CC[C@@H]1c1ccc(Cl)cc1Cl)c1cccnc1Cl (relative stereo) [Example 663]
2.40^[b] | CC1=C(C(=O)N[C@@H]2C[C@@H]2c2ccc(Cl)cc2Cl)S(=O)(=O)CCO1 (relative stereo) [Example 614]
3.51^[b] | O=C(N[C@@H]1CC[C@@H]1c1ccc(Cl)cc1C(F)(F)F)c1ccccc1 (relative stereo) [Example 680]
4.27^[b] | O=C(N[C@@H]1CC[C@@H]1c1ccc(Cl)cc1C(F)(F)F)c1ccc(Cl)cc1Cl (relative stereo) [Example 705]
4.51^[b] | O=C(N[C@@H]1CC[C@H]1c1ccc(Cl)cc1Cl)c1sccc1I (relative stereo) [Example 670]

Same assay, conditions: HPLC on reversed phase column, method [c], pH 7.8

logP | Compound
2.33^[c]; | CC1=C(C(=O)N[C@@H]2C[C@@H]2c2ccc(Cl)cc2Cl)S(=O)(=O)CCO1 (relative stereo) [Example 614]

Same assay, conditions: HPLC on reversed phase columns, method [b], pH 2.7

logP | Compound
3.31^[b] | Cc1cccnc1C(=O)N[C@@H]1CCC[C@@H]1c1ccc(F)c(F)c1 (relative stereo) [Example 64]
2.63^[b] | Cc1nn(C)cc1C(=O)NC1CC1c1ccc(Cl)cc1 (centres unmarked) [Example 19]
3.75^[b] | CCc1ccccc1C(=O)N[C@@H]1CCC[C@@H]1c1ccc(F)c(F)c1 (relative stereo) [Example 114]
2.99^[b] | O=C(N[C@@H]1C[C@H]1c1ccccc1)c1c(Cl)cccc1Cl (relative stereo) [Example 47]
3.29^[b] | COc1cscc1C(=O)N[C@@H]1CCC[C@@H]1c1ccc(F)c(F)c1 (relative stereo) [Example 78]
2.82^[b] | Cc1oncc1C(=O)N[C@@H]1CCC[C@H]1c1ccc(F)c(F)c1 (relative stereo) [Example 102]
2.90^[b] | Cn1cc(C(=O)NC2CCC2c2c(Cl)cccc2Cl)c(C(F)F)n1 (centres unmarked) [Example 726]
4.03^[b] | Cc1nc(C(F)(F)F)c(C(=O)NC2CCC2c2ccc(Cl)cc2C(F)(F)F)s1 (centres unmarked) [Example 730]

Same assay, conditions: HPLC reversed phase, method [b] (pH 2.7)

logP | Compound
4.47^[b] | O=C(NC1CCCCC1c1ccc(Cl)cc1Cl)c1ccccc1Cl (centres unmarked) [Example 409]
2.13^[b] | Cc1nn(C)cc1C(=O)NC1CCCC1c1c(F)cccc1F (centres unmarked) [Example 324]
3.84^[b] | O=C(NC1CCCCC1c1ccc(Cl)cc1)c1ccccc1C(F)(F)F (centres unmarked) [Example 364]
3.50^[b] | O=C(NC1CCCCC1c1ccc(Cl)cc1)c1c(F)cccc1F (centres unmarked) [Example 369]
3.26^[b] | Cn1cc(C(=O)NC2CCC2c2ccc(Cl)cc2Cl)c(C(F)F)n1 (centres unmarked) [Example 468]
2.16^[b] | O=C(N[C@@H]1CC[C@@H]1c1c(F)cccc1C(F)(F)F)c1cccnc1 (relative stereo) [Example 562]
3.49^[b] | O=C(NC1CCC1c1c(F)cccc1F)c1ccc(Cl)cc1Cl (centres unmarked) [Example 441]
3.24^[b] | Cc1nc(C)c(C(=O)NC2CCCC2c2ccc(Cl)cc2Cl)s1 (centres unmarked) [Example 354]
2.82^[b] | O=C(NC1CC1c1ccc(Cl)cc1)c1ccccc1Br (centres unmarked) [Example 272]
3.45^[b] | O=C(NC1CCCCC1c1ccccc1Cl)c1cccnc1C(F)(F)F (centres unmarked) [Example 378]
4.11^[b] | O=C(NC1CCCCC1c1ccccc1C(F)(F)F)c1ccccc1C(F)(F)F (centres unmarked) [Example 390]
4.13^[b] | O=C(NC1CCCCC1c1ccccc1C(F)(F)F)c1ccccc1I (centres unmarked) [Example 389]
3.68^[b] | O=C(NC1CCCCC1c1c(F)cccc1F)c1ccccc1Cl (centres unmarked) [Example 396]
3.42^[b] | O=C(NC1CCCC1c1ccccc1Cl)c1ccccc1Cl (centres unmarked) [Example 294]
2.79^[b] | O=C(N[C@@H]1C[C@@H]1c1ccc(Cl)cc1)c1ccccc1F (relative stereo) [Example 269]
4.08^[b] | O=C(N[C@@H]1CC[C@H]1c1ccc(F)cc1C(F)(F)F)c1ccc(Cl)cc1Cl (relative stereo) [Example 510]
3.68^[b] | O=C(NC1CCCC1c1ccc(C(F)(F)F)cc1)c1ccccc1Cl (centres unmarked) [Example 305]
4.02^[b] | O=C(NC1CCC1c1ccc(F)cc1C(F)(F)F)c1cccc(Cl)c1 (centres unmarked) [Example 477]
3.02^[b] | O=C(NC1CC1c1ccc(Cl)cc1)c1c(F)cccc1I (centres unmarked) [Example 464]
2.80^[b] | O=C(NC1CC1c1ccc(Cl)cc1)c1c(F)cc(F)cc1F (centres unmarked) [Example 466]
3.79^[b] | O=C(NC1CCCC1c1ccccc1C(F)(F)F)c1ccccc1C(F)(F)F (centres unmarked) [Example 286]
3.08^[b] | O=C(NC1CC1c1ccc(Cl)cc1)c1c(F)cccc1C(F)(F)F (centres unmarked) [Example 270]
2.97^[b] | Cc1nc(C)c(C(=O)NC2CCCC2c2ccccc2C(F)(F)F)s1 (centres unmarked) [Example 308]
2.81^[b] | O=C(NC1CCC1c1ccccc1Cl)c1ccccc1 (centres unmarked) [Example 449]

Compound | logP
O=C(NC1CC1c1ccc(Cl)cc1)c1cccnc1Cl (centres unmarked) [Compound 274] | 2.14^[b]

Same assay, conditions: HPLC reversed phase, method [c] pH 7.8

logP | Compound
2.76^[c]; | O=C(NC1CC1c1ccc(Cl)cc1)c1ccccc1Br (centres unmarked) [Example 272]
2.75^[c]; | O=C(N[C@@H]1C[C@@H]1c1ccc(Cl)cc1)c1ccccc1F (relative stereo) [Example 269]
3.63^[c]; | O=C(NC1CCCC1c1ccc(C(F)(F)F)cc1)c1ccccc1Cl (centres unmarked) [Example 305]
2.99^[c]; | O=C(NC1CC1c1ccc(Cl)cc1)c1c(F)cccc1I (centres unmarked) [Example 464]
2.78^[c]; | O=C(NC1CC1c1ccc(Cl)cc1)c1c(F)cc(F)cc1F (centres unmarked) [Example 466]
3.03^[c]; | O=C(NC1CC1c1ccc(Cl)cc1)c1c(F)cccc1C(F)(F)F (centres unmarked) [Example 270]

Compound | logP
O=C(NC1CC1c1ccc(Cl)cc1)c1cccnc1Cl (centres unmarked) [Compound 274] | 2.10^[c];

Same assay, conditions: HPLC-MS, method [b]: pH 2.7, 0.1% formic acid / acetonitrile; read-out: log P^b)

Compound | chromatographic logP
O=C(N[C@@H]1C[C@]1(F)c1ccc(Cl)cc1)c1c(F)cccc1F (relative stereo) [Compound 750, rel-N-[(1R,2S)-2-(4-chlorophenyl)-2-fluorocyclopropyl]-2,6-difluorobenzamide] | 2.69

Same assay, conditions: method [b], HPLC reversed phase, pH 2.7

logP | Compound
3.46^[b] | Cc1ccsc1C(=O)N[C@@H]1CCC[C@H]1c1ccc(F)c(F)c1 (relative stereo) [Example 136]
3.46^[b] | O=C(N[C@@H]1CC[C@H]1c1ccccc1Cl)c1ccccc1I (relative stereo) [Example 241]
3.27^[b] | CN(C(=O)c1c(C(F)F)nn(C)c1F)C1CCCCC1c1ccccc1 (centres unmarked) [Example 196]
3.36^[b] | O=C(NC1CC1c1ccc(Cl)cc1Cl)c1c(F)cccc1F (centres unmarked) [Example 209]
3.60^[b] | Cn1cc(C(=O)N(C2CC2)C2CCCCC2c2ccccc2)c(C(F)F)n1 (centres unmarked) [Example 138]
3.85^[b] | Cn1cc(C(=O)N(C2CC2)C2CCCC2c2ccccc2Cl)c(C(F)F)n1 (centres unmarked) [Example 156]
2.75^[b] | Cn1nc(C(F)F)c(C(=O)NC2CC2c2cccc(F)c2)c1Cl (centres unmarked) [Example 191]
3.96^[b] | Cn1cc(C(=O)N(C2CC2)C2CCCCC2c2ccccc2)c(C(F)(F)F)n1 (centres unmarked) [Example 142]
5.85^[b] | Cc1cc(C(=O)N(C2CC2)C2CCCCC2c2ccc(Cl)cc2Cl)c(C)o1 (centres unmarked) [Example 163]
4.51^[b] | Cc1nc(C(F)F)c(C(=O)N(C2CC2)C2CCCC2c2ccccc2Cl)s1 (centres unmarked) [Example 174]
2.94^[b] | O=C(NC1CC1c1ccc(Cl)cc1)c1c(F)cccc1F (centres unmarked) [Example 200]
3.83^[b] | CCc1nn(C)c(F)c1C(=O)N(C1CC1)C1CCCCC1c1ccccc1 (centres unmarked) [Example 144]

Same assay, conditions: method [c], HPLC reversed phase, pH 7.8

logP | Compound
3.29^[c]; | O=C(NC1CC1c1ccc(Cl)cc1Cl)c1c(F)cccc1F (centres unmarked) [Example 209]
2.89^[c]; | O=C(NC1CC1c1ccc(Cl)cc1)c1c(F)cccc1F (centres unmarked) [Example 200]

Same assay, conditions: reversed phase HPLC columns, pH 2.7, HPLC on reversed phase columns, method [b] (pH 2.7); read-out: logP

chromatographic logP | Compound
3.72 | O=C(N[C@@H]1CC[C@@H]1c1c(Cl)cccc1Cl)c1ccccc1I [Example 737]
3.32 | O=C(N[C@@H]1CC[C@@H]1c1c(Cl)cccc1Cl)c1ncccc1Cl [Example 743]

Same assay, conditions: reversed phase HPLC columns, pH 2.7, HPLC reversed phase, method [b] (pH 2.7); read-out: logP

chromatographic logP | Compound
3.29 | O=C(N[C@@H]1CCC[C@@H]1c1ccccc1C(F)(F)F)c1cccnc1C(F)(F)F [Example 290]
